Assay results reported in patent US8314110B2, “Compounds for treating mental disorders, and preparation and uses thereof” (priority 2007, dated 2012).

Key:
[1] = Metabolism of the compounds to the active component (compound [formula (II)]) in liver cells; details: human liver cells S9, 1 mM NADPH, 37° C., 2 hours; metabolized to the compound [formula (II)]
Text: After the precipitated proteins were removed by centrifugation, the obtained supernatant solution was adjusted to pH of 3 with concentrated potassium phosphate solution, and centrifuged again. The obtained supernatant was directly injected into HPLC for analysis.

[2] = oral administration; cited from earlier work
[3] = Dissolution of the oral conventional tablets; format: physicochemical
Method: Tablets were obtained by direct tabletting, and each tablet contained 6 mg of active ingredient (expressed in the compound [formula (II)]).

[4] = Dissolution of oral sustained-release capsules; format: physicochemical
Method: Granules were obtained by using conventional fluidized bed.
After the coating was dried, the coated granules were filled into hard gelatin capsules, each capsule contain 6 mg of the active ingredient (expressed in the compound [formula (II)]), and the coating degree was 6%. The capsules were subjected to dissolution tests according the method specified in the Pharmacopoeia of the People's Republic of China.

[5] = Absolute bioavailability, beagle tests of the compound [formula (II)] and its prodrugs; format: in vivo; details: iv, dosage equimolar to the prodrug, compound [formula (II)] in blood
Method: Measurement of the Absolute Bioavailability—Beagle Tests of the Compound [Formula (II)] and its Prodrugs, the Compounds 1, 2, 3, 5, 6, 7 and 8
Twenty one beagles weighing about 10 kg were divided into 7 groups, and intragastrically administered the compounds 1, 2, 3, 5, 6, 7 and 8 at a dosage of 9.4 μmol/beagle, respectively. Blood samples were taken at the predetermined time points, and the concentrations of the active metabolite (the compound [formula (II)]) and prodrugs in blood were measured. In the meantime, three beagles weighing about 10 kg were intravenously administered with the compound [formula (II)] at a dosage equimolar to the prodrug, as the control group, and the concentrations of the compound [formula (II)] in blood were measured.
The prodrugs were immediately metabolized almost completely to form the active metabolite in beagle body, the compound [formula (II)] upon being administrated parenterally, and the concentrations of the original compounds were very low (see: FIG. 1C).

SMILES	Metabolic rate (%) [1] [%]	Dissolution percentage of the active ingredient ([3]; dissolution time 2 hours) [%]	Dissolution percentage of the active ingredient ([3]; dissolution time 4 hours) [%]	Dissolution percentage of the active ingredient ([3]; dissolution time 8 hours) [%]	Dissolution percentage of the active ingredient ([4]; dissolution time 2 hours) [%]	Dissolution percentage of the active ingredient ([4]; dissolution time 4 hours) [%]	Dissolution percentage of the active ingredient ([4]; dissolution time 8 hours) [%]	Dissolution percentage of the active ingredient ([4]; dissolution time 12 hours) [%]	Dissolution percentage of the active ingredient ([4]; dissolution time 24 hours) [%]	also measured
Cc1nc2n(c(=O)c1CCN1CCC(c3noc4cc(F)ccc34)CC1)CCCC2OC(=O)Oc1ccc([N+](=O)[O-])cc1.Cl (stereo not drawn) [Compound 9, 3-{2-[4-(6-fluoro-1,2-benzoisoxazol-3-yl)-1-piperidinyl]ethyl}-2-methyl-4-oxo-6,7,8,9-tetrahydro-pyrido[1,2-α]pyrimidin-9-yl p-nitrophenyl carbonate hydrochloride]	89									
Cc1nc2n(c(=O)c1CCN1CCC(c3noc4cc(F)ccc34)CC1)CCCC2 [Risperidone]										absolute bioavailability [2]: at least 70%
Cc1ccc(C(=O)OC2CCCn3c2nc(C)c(CCN2CCC(c4noc5cc(F)ccc45)CC2)c3=O)cc1 (stereo not drawn) [Compound 2, 3-{2-[4-(6-fluoro-1,2-benzoisoxazol-3-yl)-1-piperidinyl]ethyl}-2-methyl-4-oxo-6,7,8,9-tetrahydro-pyrido[1,2-α]pyrimidin-9-yl 4-methylbenzoate]	78									
Cc1nc2n(c(=O)c1CCN1CCC(c3noc4cc(F)ccc34)CC1)CCCC2OC(=O)c1ccccc1 (stereo not drawn) [Compound 1, 3-{2-[4-(6-fluoro-1,2-benzoisoxazol-3-yl)-1-piperidinyl]-ethyl}-2-methyl-4-oxo-6,7,8,9-tetrahydro-pyrido[1,2-α]pyrimidin-9-yl benzoate]	89	35	67	92	8.9	26	60	76	94	
Cc1nc2n(c(=O)c1CCN1CCC(c3noc4cc(F)ccc34)CC1)CCCC2O (stereo not drawn) [9-hydroxy risperidone, 3-{2-[4-(6-fluoro-benzo[d]isoxazol-3-yl)piperidin-1-yl]-ethyl}-9-hydroxy-2-methyl-6,7,8,9-tetrahydro-pyrido[1,2-α]pyrimidin-4-one]										Cmax ([5]; beagle, dog, 9.4 μmol/beagle): 360 ng/mL; half-life ([5]; beagle, dog, 9.4 μmol/beagle): 2.51 h; AUC [5]: 2422 nghr/ml; absolute bioavailability [2]: 28%
CCCCCOC(=O)OC1CCCn2c1nc(C)c(CCN1CCC(c3noc4cc(F)ccc34)CC1)c2=O.Cl.Cl (stereo not drawn) [Compound 7, 3-{2-[4-(6-fluoro-1,2-benzoisoxazol-3-yl)-1-piperidinyl]ethyl}-2-methyl-4-oxo-6,7,8,9-tetrahydro-pyrido[1,2-α]pyrimidin-9-yl n-pentyl carbonate dihydrochloride]	93	45	76	93	5.3	22	41	59	82	
Cc1nc2n(c(=O)c1CCN1CCC(c3noc4cc(F)ccc34)CC1)CCCC2OC(=O)OCC(C)C.Cl.Cl (stereo not drawn) [Compound 6, 3-{2-[4-(6-fluoro-1,2-benzoisoxazol-3-yl)-1-piperidinyl]ethyl}-2-methyl-4-oxo-6,7,8,9-tetrahydro-pyrido[1,2-α]pyrimidin-9-yl isobutyl carbonate dihydrochloride]	92	43	79	98	8.8	19	42	68	89	
CCOC(=O)OC1CCCn2c1nc(C)c(CCN1CCC(c3noc4cc(F)ccc34)CC1)c2=O.Cl (stereo not drawn) [Compound 5, 3-{2-[4-(6-fluoro-1,2-benzoisoxazol-3-yl)-1-piperidinyl]ethyl}-2-methyl-4-oxo-6,7,8,9-tetrahydro-pyrido[1,2-α]pyrimidin-9-yl ethyl carbonate hydrochloride]	95									
Cc1nc2n(c(=O)c1CCN1CCC(c3noc4cc(F)ccc34)CC1)CCCC2OC(=O)Oc1ccccc1.Cl (stereo not drawn) [Compound 8, 3-{2-[4-(6-fluoro-1,2-benzoisoxazol-3-yl)-1-piperidinyl]ethyl}-2-methyl-4-oxo-6,7,8,9-tetrahydro-pyrido[1,2-α]pyrimidin-9-yl phenyl carbonate hydrochloride]	94									
